Laboratory results as given in US20230406840A1, “N-(2-(3-CYANO-2-AZABICYCLO[3.1.0]HEXAN-2-YL)-2-OXOETHYL)QUINOLINE-4-CARBOXAMIDES” (AstraZeneca AB, priority 2022, published 2023).
Values after ≈ are worked out from the molar mass of the structure shown.

Columns and labels:
[1] = target: human Fibroblast activation protein alpha (hFAP) (Homo sapiens (Human), UniProt Q12884); test: hFAP inhibition assay (tight binders); type: biochemical; settings: tight-binder format, Ala-Pro-AMC 20 μM, 2.5 h incubation; n = 1 or geometric mean (n = 5-10)
Protocol: Data were analyzed in Genedata Screener®.

[2] = Metabolic stability in human liver microsomes (HLM); type: in vitro ADME
Protocol: Metabolic stability in HLM was measured as described in J Comput Aided Mol Des 2015, 29, 795.

Rat Hepatocytes (rHep) = test: Metabolic stability in rat hepatocytes (rHep); type: in vitro ADME
Protocol: Metabolic stability in rat hepatocytes was measured as described in J Comput Aided Mol Des 2015, 29, 795.

[3] = Caco-2 AB intrinsic permeability; type: in vitro ADME; settings: human, A to B, read-out: Caco2 AB Intrinsic Papp
Protocol: (§1) Caco-2 cell permeability was measured as described in Mol/Pharm 2017, 14, 1601.

[4] = Caco-2 bidirectional (ABBA) permeability; type: in vitro ADME; settings: human; for Papp A→B: A to B, read-out: Caco2 Bidirectional (ABBA) A to B Papp; for Papp B→A: B to A, read-out: Caco2 Bidirectional (ABBA) B to A Papp; for efflux ratio: read-out: Caco2 Bidirectional (ABBA) Efflux Ratio
Protocol: as §1

Kinetic solubility = type: physicochemical; settings: kinetic from dmso stock
Protocol: Kinetic solubility was measured as described in Comput Aided Mol Des 2015, 29, 795.

[5] = target: FAP enzyme activity in mouse plasma (Mus musculus (Mouse), UniProt P97321); test: FAP target engagement enzyme activity in mouse plasma after oral dosing; settings: male C57Bl/6 mice, single oral dose 3 or 10 mg/kg; estimated from plasma exposure vs FAP activity, Imax fixed to 1; read-out: In vivo Mouse IC50
Protocol: The effect of test compound on FAP enzyme activity in mouse plasma was evaluated in an enzymatic assay using the Fibroblast Activation Protein alpha (FAP) specific fluorogenic substrate dipeptide-Coumarin, Ala-Pro-AMC, (ARI-3144). In this assay, FAP cleaves Ala-Pro-AMC to release free AMC which is measured as a fluorescent signal that correlates with enzyme activity.
Male C57Bl/6 mice (Charles River, Germany), 8 weeks of age, were single housed in a temperature-controlled room with a 12-hour light/dark cycle (06:00-18:00 light). The mice had ad libitum access to water and rodent chow diet (R70, Lactamin, Kimstad, Sweden), and were acclimated for 5 days upon arrival. After acclimation, all mice received a single oral dose of test compound (3 or 10 mg/kg). Blood samples for whole blood compound exposure measurements were taken at 0.25, 0.5, 1, 2, 4, 8 and 24 h post oral dosing. Samples were collected in EDTA capillary tubes (20 μL, K2E, REF 19.447) and were transferred to a 96-deep well plate (NUNC, Thermo Discher Scientific) and stored at −20° C. until further analyses were performed. […]
Recombinant human FAP (PB-17-1837, construct PL-17-0278, cd33-FAP (27-757)-6His, Mw85926 Da) was used as a standard for this assay. […] The plates were read on a Beckman Paradigm reader with excitation 360 nm and emission 465 nm. Fluorescence measurements were performed with kinetic read every 5 minutes for 60 min at room temperature. Data were analyzed in Excel (IDBS XLfit Add-In) using a Linear Regression (y=k*x+m) model to prepare a human recombinant FAP standard curve.
On the day of the assay, plasma was diluted (1:2) to 20 μL volume in buffer (PBS, 0.1% BSA) and 7.5 μL was transferred to the assay plate (384-well black, fluotrack PS, Greiner 781076). […] The plates were read on a Beckman Paradigm reader with excitation 360 nm and emission 465 nm. Fluorescence measurements were performed with kinetic read every 5 minutes for 60 minutes at room temperature. As noted above, FAP cleaves Ala-Pro-AMC to release free AMC which is measured as a fluorescent signal. […]

hFAP = hFAP (Homo sapiens (Human), UniProt Q12884);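 also: fluorescence read after incubating enzyme with substrate at room temperature, IC50 fitted from percent inhibition against log concentration with a one-site model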
hFAP, sequence (Q12884 38-760): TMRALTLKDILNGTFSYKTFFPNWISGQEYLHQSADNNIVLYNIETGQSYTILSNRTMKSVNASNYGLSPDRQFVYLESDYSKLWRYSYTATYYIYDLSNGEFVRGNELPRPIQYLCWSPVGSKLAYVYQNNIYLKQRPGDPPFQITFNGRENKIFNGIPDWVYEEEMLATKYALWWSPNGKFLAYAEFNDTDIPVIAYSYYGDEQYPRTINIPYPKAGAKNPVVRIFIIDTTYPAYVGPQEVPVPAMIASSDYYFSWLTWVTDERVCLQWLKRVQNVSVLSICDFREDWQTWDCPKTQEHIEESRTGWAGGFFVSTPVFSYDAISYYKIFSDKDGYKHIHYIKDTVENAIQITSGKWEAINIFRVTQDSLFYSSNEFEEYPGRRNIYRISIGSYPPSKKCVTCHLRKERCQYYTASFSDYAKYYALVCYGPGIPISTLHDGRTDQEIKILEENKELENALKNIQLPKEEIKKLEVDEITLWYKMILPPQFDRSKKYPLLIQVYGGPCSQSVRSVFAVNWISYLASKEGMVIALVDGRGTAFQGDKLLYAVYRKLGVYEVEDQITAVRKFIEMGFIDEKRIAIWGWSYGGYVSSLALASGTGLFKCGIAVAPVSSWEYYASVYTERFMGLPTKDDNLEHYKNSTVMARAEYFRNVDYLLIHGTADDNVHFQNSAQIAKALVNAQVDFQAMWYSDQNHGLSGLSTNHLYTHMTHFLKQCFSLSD
Protocol: Compounds were tested in a biochemical inhibition assay using hFAP enzyme at 0.24 nM FAC (Proteros, 38-760 (PR-0071)) and the substrate Ala-Pro-AMC (ARI-3144) at 20 μM FAC. 384 low volume black plates (Greiner #784076) were used. 4 μL, 0.48 nM enzyme solution (100 mM Tris HCl, 100 mM NaCl, 0.05% Chaps, pH 7.4) was added to 40 nL compounds (in DMSO) at 10 CR, 3-fold dilution series from 50 μM FAC. Plates were incubated for 15 min at rt in dark. 4 μL, 40 μM substrate solution (100 mM Tris HCl, 100 mM NaCl, 0.05% Chaps, pH 7.4) was added to each well. Plates were centrifuged at 1000 rpm and incubated for 30 min at rt in dark. The plates were read on a PHERAstar® reader with excitation 340 nm and emission 460 nm. Data were analyzed in Genedata Screener®. IC50 values were determined by plotting % inhibition versus log compound concentration and using a one site dose response model.

human Fibroblast activation protein alpha (hFAP), sequence (Q12884 38-760): as above
FAP enzyme activity in mouse plasma, sequence (P97321 24-761 limits assumed): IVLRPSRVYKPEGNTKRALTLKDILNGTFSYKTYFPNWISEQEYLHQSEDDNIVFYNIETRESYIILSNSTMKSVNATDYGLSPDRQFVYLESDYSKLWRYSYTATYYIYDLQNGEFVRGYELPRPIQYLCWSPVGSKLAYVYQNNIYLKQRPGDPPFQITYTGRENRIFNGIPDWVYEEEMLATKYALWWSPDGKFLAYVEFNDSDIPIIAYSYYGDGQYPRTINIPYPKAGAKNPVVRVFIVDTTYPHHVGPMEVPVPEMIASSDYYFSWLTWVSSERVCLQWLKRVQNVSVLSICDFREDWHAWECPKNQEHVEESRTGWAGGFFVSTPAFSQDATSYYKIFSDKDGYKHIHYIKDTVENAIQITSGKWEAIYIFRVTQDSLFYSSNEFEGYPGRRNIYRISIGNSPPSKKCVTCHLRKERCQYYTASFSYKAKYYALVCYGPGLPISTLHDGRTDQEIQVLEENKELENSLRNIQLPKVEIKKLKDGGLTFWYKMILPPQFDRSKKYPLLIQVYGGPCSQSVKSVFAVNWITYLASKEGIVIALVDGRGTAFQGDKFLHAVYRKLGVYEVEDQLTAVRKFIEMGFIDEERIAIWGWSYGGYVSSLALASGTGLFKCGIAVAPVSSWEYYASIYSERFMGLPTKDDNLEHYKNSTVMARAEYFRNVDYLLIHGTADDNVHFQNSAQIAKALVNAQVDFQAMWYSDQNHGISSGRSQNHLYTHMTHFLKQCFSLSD

IC50 [1] [nM]	microsomal CLint [2] [µL/min/mg]	rHeps CLint (Rat Hepatocytes (rHep)) [μL/min/1E6]	Papp [3] [×10⁻⁶ cm/s]	Papp A→B [4] [×10⁻⁶ cm/s]	Papp B→A [4] [×10⁻⁶ cm/s]	efflux ratio [4]	solubility (Kinetic solubility) [µM]	IC50 [5] [nM]	IC50 (hFAP) [nM]	Compound
0.48	< 3.2	<2	60	24	19	0.8	> 1000	3	< 1.6	Cc1ccc2c(C(=O)NCC(=O)N3[C@H](C#N)C[C@@H]4C[C@@H]43)ccnc2c1 [Example 20, N-(2-((1S,3S,5S)-3-Cyano-2-azabicyclo[3.1.0]hexan-2-yl)-2-oxoethyl)-7-methylquinoline-4-carboxamide]
0.15	< 3	2.6	9.3	2.8	28	10	570 (≈ 220 µg/mL)	36	0.49	N#C[C@@H]1C[C@@H]2C[C@@H]2N1C(=O)CNC(=O)c1ccnc2cc(C3(C#N)CC3)ccc12 [Example 40, N-(2-((1S,3S,5S)-3-Cyano-2-azabicyclo[3.1.0]hexan-2-yl)-2-oxoethyl)-7-(1-cyanocyclopropyl)quinoline-4-carboxamide]
